The compounds below were run against T1, human CRTH2 (Homo sapiens, UniProt Q9Y5Y4) (assay: [35S]GTPγS binding assay (SPA) on membranes from CHO-K1 cells stably expressing human CRTH2, stimulated with 60 nM DHK-PGD2). Conditions: membranes of CHO-K1 cells expressing human CRTH2; 60 nM DHK-PGD2; Table 1; read-out: CRTH2 hGTPγS IC50.
T1 construct: expressed in transfected cells
T1 sequence (Q9Y5Y4 1-395): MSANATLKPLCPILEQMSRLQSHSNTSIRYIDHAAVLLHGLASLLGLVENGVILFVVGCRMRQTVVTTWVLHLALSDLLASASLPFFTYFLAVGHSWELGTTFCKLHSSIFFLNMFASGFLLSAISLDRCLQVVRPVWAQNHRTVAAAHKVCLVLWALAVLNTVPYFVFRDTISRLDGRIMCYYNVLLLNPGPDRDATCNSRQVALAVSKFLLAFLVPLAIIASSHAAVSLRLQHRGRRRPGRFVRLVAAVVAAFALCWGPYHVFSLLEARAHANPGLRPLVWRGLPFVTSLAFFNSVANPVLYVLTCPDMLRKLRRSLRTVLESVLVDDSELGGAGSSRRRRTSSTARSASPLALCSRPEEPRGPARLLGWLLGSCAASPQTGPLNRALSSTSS
Format: biochemical
Method in brief: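 Membranes (4 μg) from CHO-K1 cells stably expressing human CRTH2 were incubated with compounds, 60 nM DHK-PGD2, 500 pM [35S]GTPγS and 10 μM GDP plus WGA SPA beads. Buffer was 20 mM HEPES pH 7.4, 10 mM MgCl2, 300 mM NaCl, 0.2% BSA, with 1% DMSO. Incubation ran 2 h at ambient temperature, with SPA scintillation read 4 h after centrifugation.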

IC50 [µM]	Structure (SMILES)
0.0007	CN(Cc1ccc(OCC(=O)O)c(-c2cc(F)cc(C#N)c2)c1)S(=O)(=O)c1ccc(Cl)c(Cl)c1 [Example 38, 2-(3-cyano-5-fluorophenyl)-4-((3,4-dichloro-N-methylphenylsulfonamido)methyl)phenoxyacetic acid]
0.0006	COc1ccc(S(=O)(=O)N(C)Cc2cc(-c3cc(F)cc(C#N)c3)c(OCC(=O)O)cc2F)cc1F [Example 197, 2-(3-cyano-5-fluorophenyl)-(5-fluoro-4-((3-fluoro-4-methoxy-N-methylphenylsulfonamido)methyl)phenoxy)acetic acid]
0.169	O=C(O)COc1ccc(CNS(=O)(=O)c2ccc(F)cc2)cc1-c1cccc(C(F)(F)F)c1 [Example 110]
0.012	CN(Cc1ccc(OCC(=O)O)c(-c2cc(F)cc(C#N)c2)c1)S(=O)(=O)c1ccc(F)cc1 [Example 64, 2-(3-cyano-5-fluorophenyl)-4-((4-fluoro-N-methylphenylsulfonamido)methyl)phenoxyacetic acid]
0.002	CN(Cc1ccc(OCC(=O)O)c(-c2cc(F)cc(C#N)c2)c1)S(=O)(=O)c1cccc(Cl)c1 [Example 45, 2-(3-cyano-5-fluorophenyl)-4-((3-chloro-N-methylphenylsulfonamido)methyl)phenoxyacetic acid]
0.0015	CN(Cc1cc(-c2cccc(C#N)c2)c(OCC(=O)O)cc1Cl)S(=O)(=O)c1ccc(F)c(Cl)c1 [Example 42, 2-(3-cyanophenyl)-4-((3-chloro-4-fluoro-N-methylphenylsulfonamido)methyl)-5-chlorophenoxyacetic acid]

Same assay, conditions: potency class symbols; Table 2; read-out: CRTH2 hGTPγS IC50

Structure (SMILES)	IC50 [µM]
CN(Cc1ccc(OCC(=O)O)c(-c2cccc(C#N)c2)c1)S(=O)(=O)c1ccc(Cl)c(F)c1 [Example 65, 2-(3-cyanophenyl)-4-((3-fluoro-4-chloro-N-methylphenylsulfonamido)methyl)phenoxyacetic acid]	< 0.1
CN(C)S(=O)(=O)c1cccc(-c2cc(CN(C)S(=O)(=O)c3ccc(F)cc3)ccc2OCC(=O)O)c1 [Example 85, 2-(3-N,N-dimethylsulfamoylphenyl)-4-((4-fluoro-N-methylphenylsulfonamido)methyl)phenoxyacetic acid]	< 0.1
CN(Cc1ccc(OCC(=O)O)c(-c2cc(F)cc(C#N)c2)c1)S(=O)(=O)c1ccc(Cl)c(Cl)c1 [Example 38, 2-(3-cyano-5-fluorophenyl)-4-((3,4-dichloro-N-methylphenylsulfonamido)methyl)phenoxyacetic acid]	< 0.1
COc1ccc(S(=O)(=O)N(C)Cc2cc(-c3cc(F)cc(C#N)c3)c(OCC(=O)O)cc2F)cc1F [Example 197, 2-(3-cyano-5-fluorophenyl)-(5-fluoro-4-((3-fluoro-4-methoxy-N-methylphenylsulfonamido)methyl)phenoxy)acetic acid]	< 0.1
CN(Cc1cc(-c2cccc(C#N)c2)c(OCC(=O)O)cc1F)S(=O)(=O)c1ccc(F)c(Cl)c1 [Example 43, 2-(3-cyanophenyl)-4-((3-chloro-4-fluoro-N-methylphenylsulfonamido)methyl)-5-fluorophenoxyacetic acid]	< 0.1
COc1cccc(-c2cc(CN(C)S(=O)(=O)c3ccccc3)ccc2OCC(=O)O)c1 [Example 151, 2-(3-methoxyphenyl)-4-((-N-methylphenylsulfonamido)methyl)phenoxyacetic acid]	1 to 10
CN(Cc1ccc(OCC(=O)O)c(-c2ccc3ccn(C)c3c2)c1)S(=O)(=O)c1ccc(F)cc1 [Example 101, 2-(1-methyl-indol-6-yl)-4-((4-fluoro-N-methylphenylsulfonamido)methyl)phenoxyacetic acid]	< 0.1
CN(Cc1ccc(OCC(=O)O)c(-c2cccc(C#N)c2)c1)S(=O)(=O)c1ccc(F)c(F)c1 [Example 63, 2-(3-cyanophenyl)-4-((3,4-difluoro-N-methylphenylsulfonamido)methyl)phenoxyacetic acid]	< 0.1
CN(Cc1ccc(OCC(=O)O)c(-c2cc(F)cc(C#N)c2)c1)S(=O)(=O)c1ccc(F)cc1 [Example 64, 2-(3-cyano-5-fluorophenyl)-4-((4-fluoro-N-methylphenylsulfonamido)methyl)phenoxyacetic acid]	< 0.1
CN(Cc1ccc(OCC(=O)O)c(-c2cc(F)cc(C#N)c2)c1)S(=O)(=O)c1cccc(Cl)c1 [Example 45, 2-(3-cyano-5-fluorophenyl)-4-((3-chloro-N-methylphenylsulfonamido)methyl)phenoxyacetic acid]	< 0.1
COc1ccc(S(=O)(=O)N(C)Cc2ccc(OCC(=O)O)c(-c3cccc(S(C)(=O)=O)c3)c2)cc1 [Example 69, 2-(3-methylsulfonylphenyl)-4-((4-methoxy-N-methylphenylsulfonamido)methyl)phenoxyacetic acid]	< 0.1
CCS(=O)(=O)c1cccc(-c2cc(CN(C)S(=O)(=O)c3ccc(F)c(F)c3)ccc2OCC(=O)O)c1 [Example 58, 2-(3-ethylsulfonylphenyl)-4-((3,4-difluoro-N-methylphenylsulfonamido)methyl)phenoxyacetic acid]	< 0.1
CN(Cc1ccc(OCC(=O)O)c(-c2cc(Cl)cc(C#N)c2)c1)S(=O)(=O)c1ccc(F)cc1 [Example 207, 2-(3-cyano-5-chloro-phenyl)-4-((4-fluoro-N-methylphenylsulfonamido)methyl)phenoxyacetic acid]	< 0.1
CN(Cc1cc(F)c(OCC(=O)O)c(-c2cccc(C#N)c2)c1)S(=O)(=O)c1ccc(F)cc1 [Example 136, 2-(3-cyanophenyl)-4-((4-fluoro-N-methylphenylsulfonamido)methyl)-6-fluorophenoxyacetic acid]	0.1 to 1
CN(Cc1cc(-c2cccc(C#N)c2)c(OCC(=O)O)cc1Cl)S(=O)(=O)c1ccc(F)c(Cl)c1 [Example 42, 2-(3-cyanophenyl)-4-((3-chloro-4-fluoro-N-methylphenylsulfonamido)methyl)-5-chlorophenoxyacetic acid]	< 0.1
CNS(=O)(=O)c1cccc(-c2cc(CN(C)S(=O)(=O)c3ccc(F)c(Cl)c3)ccc2OCC(=O)O)c1 [Example 16, 2-(2-(3-N-methylsulfamoylphenyl)-4-((3-chloro-4-fluoro-N-methylphenylsulfonamido)methyl)phenoxy)acetic acid]	< 0.1
CN(Cc1cc(-c2cc(F)cc(C#N)c2)c(OCC(=O)O)cc1F)S(=O)(=O)c1ccc(F)cc1 [Example 208, 2-(3-cyano-5-fluoro-phenyl)-4-((4-fluoro-N-methylphenylsulfonamido)methyl)-5-fluorophenoxyacetic acid]	< 0.1
CN(Cc1ccc(OCC(=O)O)c(-c2cccc(C(F)(F)F)c2)c1)S(=O)(=O)c1cccc2cccnc12 [Example 143, 2-(3-trifluoromethylphenyl)-4-((N-methylquinoline-8-sulfonamido)methyl)phenoxyacetic acid]	0.1 to 1
CN(Cc1ccc(OCC(=O)O)c(-c2ccc(C#N)s2)c1)S(=O)(=O)c1ccc(F)cc1 [Example 188, 2-(2-cyanothiophen-5-yl)-4-((4-fluoro-N-methylphenylsulfonamido)methyl)phenoxyacetic acid]	< 0.1

Second part, the compound after the results:

IC50 [µM]	Structure (SMILES)
1 to 10	CC(C)N(Cc1ccc(OCC(=O)O)c(-c2cccc(C(F)(F)F)c2)c1)S(=O)(=O)c1ccc(F)c(F)c1 [Example 152, 2-(3-trifluoromethylphenyl)-4-((3,4-difluoro-N-isopropylphenylsulfonamido)methyl)phenoxyacetic acid]
1 to 10	COc1cccc(S(=O)(=O)N(C)Cc2ccc(OCC(=O)O)c(-c3cccc(C(F)(F)F)c3)c2)c1 [Example 153, 2-(3-trifluoromethylphenyl)-4-((3-methoxy-N-methylphenylsulfonamido)methyl)phenoxyacetic acid]
< 0.1	CN(Cc1ccc(OCC(=O)O)c(-c2cccc(C(F)(F)F)c2)c1)S(=O)(=O)c1ccc(F)cc1 [Example 95, 2-(3-trifluoromethylphenyl)-4-((4-fluoro-N-methylphenylsulfonamido)methyl)phenoxyacetic acid]
1 to 10	CN(Cc1cc(F)c(OCC(=O)O)c(-c2cccc(C(F)(F)F)c2)c1)S(=O)(=O)c1ccc(F)cc1 [Example 161, 2-(3-trifluoromethylphenyl)-4-((4-fluoro-N-methylphenylsulfonamido)methyl)-6-fluorophenoxyacetic acid]
< 0.1	CN(Cc1ccc(OCC(=O)O)c(-c2cccc(C#N)c2)c1)S(=O)(=O)c1ccc(F)cc1 [Example 5, 2-(2-(3-cyanophenyl)-4-((4-fluoro-N-methylphenylsulfonamido)methyl)phenoxy)acetic acid]
0.1 to 1	CN(Cc1ccc(OCC(=O)O)c(-c2cncc(C(F)(F)F)c2)c1)S(=O)(=O)c1ccc(F)cc1 [Example 119, 2-(3-trifluoromethyl-5-pyridinyl)-4-((4-fluoro-N-methylphenylsulfonamido)methyl)phenoxyacetic acid]
0.1 to 1	O=C(O)COc1ccc(CNS(=O)(=O)c2ccc(F)cc2)cc1-c1cccc(C(F)(F)F)c1 [Example 110]
0.1 to 1	CC(C)c1cccc(-c2cc(CN(C)S(=O)(=O)c3ccc(F)cc3)ccc2OCC(=O)O)c1 [Example 117, 2-(3-isopropylphenyl)-4-((4-fluoro-N-methylphenylsulfonamido)methyl)phenoxyacetic acid]
0.1 to 1	COc1ccccc1S(=O)(=O)N(C)Cc1ccc(OCC(=O)O)c(-c2cccc(C(F)(F)F)c2)c1 [Example 146, 2-(3-trifluoromethylphenyl)-4-((2-methoxy-N-methylphenylsulfonamido)methyl)phenoxyacetic acid]
< 0.1	CN(Cc1ccc(OCC(=O)O)c(-c2cc(F)cc(C(F)(F)F)c2)c1)S(=O)(=O)c1ccc(F)cc1 [Example 79, 2-(3-trifluoromethyl-5-fluorophenyl)-4-((4-fluoro-N-methylphenylsulfonamido)methyl)phenoxyacetic acid]
< 0.1	CN(Cc1ccc(OCC(=O)O)c(-c2cccc(C(F)(F)F)c2)c1)S(=O)(=O)c1ccc(F)c(Cl)c1 [Example 74, 2-(3-trifluoromethylphenyl)-4-((3-chloro-4-fluoro-N-methylphenylsulfonamido)methyl)phenoxyacetic acid]
1 to 10	CN(Cc1ccc(OCC(=O)O)c(-c2cccc(C(F)(F)F)c2)c1)S(=O)(=O)Cc1ccccc1 [Example 159, 2-(3-trifluoromethylphenyl)-4-((N-methylbenzylsulfonamido)methyl)phenoxyacetic acid]
0.1 to 1	COCc1cccc(-c2cc(CN(C)S(=O)(=O)c3ccc(F)cc3)ccc2OCC(=O)O)c1 [Example 114, 2-(3-methoxymethylphenyl)-4-((4-fluoro-N-methylphenylsulfonamido)methyl)phenoxyacetic acid]
